# Measured values published in PMC7616177, “From structure to clinic: Design of a muscarinic M1 receptor agonist with the potential to treat Alzheimer’s disease” (Cell, 2021).
# How the values were obtained:
# healthy volunteers = assay: First-time-in-human single ascending dose safety; format: in vivo
# From the text: (§1) HTL9936 was progressed into a randomized, double blind, placebo controlled, first time-in-human (FTIH) ascending single and multiple oral dose study in healthy young adult male volunteers and healthy elderly male and female volunteers. (ClinicalTrials.gov Identifier: NCT02291783).
# (§2) The required amount of sterile solution was subsequently injected into the infusion bag containing sodium chloride 0.9%w/v infusion fluid to provide the required dose for IV administration.
# [1] = First-time-in-human single ascending dose safety; format: in vivo; details: plasma, oral, 175 mg; human SAD; read-out: Cmax at which cholinergic side effects were recorded
# From the text: as §1, §2
# human M1 receptor [2] = biological target: T1, human M1 receptor (Homo sapiens, UniProt P11229); assay: Label-free dynamic mass redistribution in CHO cells overexpressing human M1-receptor; format: cell-based
# T1 construct: expressed in transfected cells
# T1 sequence (P11229 1-460): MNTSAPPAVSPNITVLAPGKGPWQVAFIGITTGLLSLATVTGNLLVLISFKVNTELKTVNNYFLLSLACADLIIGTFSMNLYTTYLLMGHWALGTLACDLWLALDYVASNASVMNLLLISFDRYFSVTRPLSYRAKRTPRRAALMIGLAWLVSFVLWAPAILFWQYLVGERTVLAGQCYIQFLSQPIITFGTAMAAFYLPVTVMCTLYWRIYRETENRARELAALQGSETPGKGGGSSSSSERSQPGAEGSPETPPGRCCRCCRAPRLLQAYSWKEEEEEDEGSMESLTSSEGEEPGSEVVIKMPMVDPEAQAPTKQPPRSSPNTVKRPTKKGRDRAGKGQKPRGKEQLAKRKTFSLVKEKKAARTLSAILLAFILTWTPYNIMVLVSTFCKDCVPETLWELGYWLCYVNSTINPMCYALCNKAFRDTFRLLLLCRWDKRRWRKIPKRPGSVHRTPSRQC
# CA1 pyramidal cells = assay: Electrophysiological recordings in rat hippocampal slices; format: cell-based; details: read-out: Spontaneous firing rate of CA1 pyramidal cells EC50
# [3] = tested on: Tg37 hemizygous mice inoculated with RML prions; format: in vivo, mouse; details: prion mice 9 w.p.i., 30 mg/kg i.p., 24 h after training
# Wistar rats [4] = assay: Open field exploratory behaviour; format: in vivo; details: rat
# Procedure: During the rat passive avoidance testing, open field exploratory behavior was measured on study days 4 and 5 (acclimatisation and handling), 6 (training) and 7 (recall). The open field apparatus consisted of black-painted Perspex 620 mm^2 with walls 300 mm high. Locomotor activity, measured as the distance traveled in a 300 s period, as well as incidences of rearing and grooming were recorded, using Ethovision XT tracking software (Noldus UK).
# healthy elderly subjects = assay: Clinical fMRI Arena task in healthy elderly subjects; format: in vivo, human; parameters: Activation across a-priori regions during encoding and retrieval / Left hippocampus activation effect: dose or concentration left out as unconfirmed
# From the text: All functional MRI images were acquired on a 3T scanner using gradient echo-echo planar imaging (GRE-EPI: TR: […]; TE: 30 ms; 90-degree flip angle; slices: 53; voxel size 3.75x 3.75 mm) and an 8-channel head coil. All data processing was done using Statistical Parameteric Mapping (SPM) version 5 software. All functional images were co-registered to subjects own T1 weighted structural image for anatomical localization, realigned using a least-squares approach and a 6 parameter (rigid body) spatial translation, normalized to Montreal neurological institute (MNI) using a high dimensional, non-linear transformation and smoothed using 3D 7 mm Gaussian filter. A high pass filter was applied to remove low temporal frequency drift. Bilateral hippocampal and caudate masks based on previous publications using the Arena task were used for analysis ([Antonova et al., 2009], [2011]). The masks consisted of spheres of radius 6mm centered on co-ordinates from these papers.
# A block design was used to assess functional activation during encoding, retrieval, and rest (control) conditions of the Arena task. Beta-estimates of functional response during each condition were created by modeling signal changes convolved with a double gamma hemodynamic response function with peak responses at 4 and 8 s following stimulus onset for each individual. In the first level analysis, difference in beta estimates for encoding versus rest, and retrieval versus rest were derived. […] Functional responses in the a-priori ROIs were extracted using hippocampal, ventral striatum, and caudate masks derived from subject own T1 weighted image. To test for drug effects in these pre-specified regions an ANOVA including fixed-effect terms representing treatment group, study site as a between subject factor, and baseline MMSE score as covariate was used.
# M3-receptor = biological target: T2, M3-receptor (Homo sapiens, UniProt P20309); assay: M3-receptor functional agonist assay; format: cell-based
# T2 construct: expressed in transfected cells
# Procedure: Functional assays were performed using the Alphascreen Surefire phopho-ERK1/2 assay. […] Once adhered, cells were serum starved overnight. Agonist stimulation was performed by the addition of […] agonist to the cells for a pre-optimized 5 min period (37°C). Media was removed and 50 μl of lysis buffer added. After 15 min a 4 μl sample was transferred to a 384-well plate and 7 μl of detection mixture added.
# Wistar rats [5] = assay: Novel object recognition; format: in vivo, rat
# Procedure: Male adult Wistar rats (Harlan, UK; approximately 11 weeks of age) were handled for two days prior to the experiment. […] Donepezil (0.1 mg/kg) and galanthamine (3 mg/kg) were administered via intraperitoneal injection (in saline) 60 min prior to training. Following a 10-min habituation period, each rat was placed into the test arena comprising an open-field arena in the presence of two identical plastic shapes and allowed to explore for 5 min. The rat was then returned to its home cage. After 24 hours, the rat was returned to the test arena in the presence of one familiar object, and one novel object. The time exploring each object was recorded using image analysis software (Ethovision XT, Noldus, UK).
# rat M1-receptor = biological target: T3, rat M1-receptor (Rattus norvegicus, UniProt P08482); assay: Recombinant rat M1-receptor functional assay; format: cell-based
# T3 construct: expressed in transfected cells; host or cells: not described
# human M1 receptor [6] = biological target: T1, human M1 receptor; assay: Inositol phosphate (IP1) accumulation in CHO Flp-In cells; format: cell-based
# panel of 62 GPCRs = assay: DiscoverX neurological and psychiatric GPCR selectivity panel; format: cell-based; details: 10 μM
# human M1 receptor [7] = biological target: T1, human M1 receptor; assay: pERK1/2 assay in CHO cells overexpressing human M1-receptor; format: cell-based
# T2 sequence (P20309 whole entry): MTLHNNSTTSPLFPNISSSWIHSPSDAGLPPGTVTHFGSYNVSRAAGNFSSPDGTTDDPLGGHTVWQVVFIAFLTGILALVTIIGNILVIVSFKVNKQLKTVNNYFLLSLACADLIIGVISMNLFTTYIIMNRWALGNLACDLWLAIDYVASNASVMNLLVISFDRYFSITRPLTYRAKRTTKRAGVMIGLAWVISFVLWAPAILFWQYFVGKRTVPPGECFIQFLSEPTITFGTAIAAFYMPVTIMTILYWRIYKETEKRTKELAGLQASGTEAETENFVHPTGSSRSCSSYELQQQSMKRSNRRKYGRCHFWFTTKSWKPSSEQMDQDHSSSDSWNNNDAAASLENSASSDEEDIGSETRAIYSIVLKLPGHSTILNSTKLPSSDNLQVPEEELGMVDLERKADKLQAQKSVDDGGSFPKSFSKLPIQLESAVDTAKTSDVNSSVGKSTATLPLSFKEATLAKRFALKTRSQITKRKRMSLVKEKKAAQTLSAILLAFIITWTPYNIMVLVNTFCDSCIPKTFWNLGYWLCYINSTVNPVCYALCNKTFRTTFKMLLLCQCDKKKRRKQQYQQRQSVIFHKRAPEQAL
# T3 sequence (P08482 whole entry): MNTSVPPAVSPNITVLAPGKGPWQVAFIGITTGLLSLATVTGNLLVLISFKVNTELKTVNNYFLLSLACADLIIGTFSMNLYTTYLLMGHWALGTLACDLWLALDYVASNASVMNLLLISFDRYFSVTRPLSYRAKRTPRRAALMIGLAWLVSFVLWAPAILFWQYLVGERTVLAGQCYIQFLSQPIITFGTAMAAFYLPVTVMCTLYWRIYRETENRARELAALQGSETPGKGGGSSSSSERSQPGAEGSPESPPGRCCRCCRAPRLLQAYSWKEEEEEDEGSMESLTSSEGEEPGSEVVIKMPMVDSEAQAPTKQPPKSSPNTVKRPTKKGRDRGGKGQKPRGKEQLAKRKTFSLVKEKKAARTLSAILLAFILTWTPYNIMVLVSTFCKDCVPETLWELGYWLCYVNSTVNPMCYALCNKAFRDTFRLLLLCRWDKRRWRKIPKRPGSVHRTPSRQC
smiles,measurement,setting,value
"CCOC(=O)N1CCC[C@H](N2CCC(C(=O)NC3(C)CCC3)CC2)CC1 [HTL9936, ethyl (S)-4-(4-((1-methylcyclobutyl)carbamoyl)piperidin-1-yl)azepane-1-carboxylate]","Subjects with mild cholinergic responses (salivation, sweating, blood pressure/heart rate changes)","healthy volunteers; human SAD, 175 mg cohort",3/5
same,Serious adverse events leading to withdrawal,"healthy volunteers; human SAD, 1−100mg oral",no serious adverse events
same,Margin of 242 ng/mL over plasma minimal effective concentration in aged beagle DNMP,healthy volunteers; human vs dog 58 ng/mL,about 5 ×
same,Estimated unbound brain exposure at plasma Cmax of 242 ng/mL,"healthy volunteers; human, from CSF to plasma ratios 1 to 3 h",72 to 259 nM
same,Cmax,[1],242 ng/mL
same,EC50,human M1 receptor [2],79 nM
same,EC50,CA1 pyramidal cells,1600 nM
same,Immobility level on re-exposure to training environment,[3],~ 34%
same,Open-field exploratory behavior,Wistar rats [4],no difference in effect
same,Activation across a-priori regions during encoding and retrieval,healthy elderly subjects; 10.1 dose (so in the source),increased bilateral activation
same,Left hippocampus activation effect,healthy elderly subjects; 40.3 dose (so in the source),smaller effect
same,Arena task performance,"healthy elderly subjects; healthy elderly, i.v. infusion",did not significantly improve task performance
same,fMRI activation during encoding of spatial cues,"healthy elderly subjects; healthy elderly, i.v. infusion",significant drug by activation interaction effect in the left hippocampus
same,Predicted steady-state plasma concentration,"healthy elderly subjects; human, high dose 40.3 mg i.v.",100 ng/mL
same,Predicted exposure as multiple of human M1-receptor in vitro potency,"healthy elderly subjects; human, low and high doses",0.2- to 3.4 fold
same,Predicted steady-state plasma concentration,"healthy elderly subjects; human, low dose 10.1 mg i.v.",25 ng/mL
same,EC50,M3-receptor,> 20000 nM
same,M3-receptor agonist activity,M3-receptor,no detectable agonism
same,Effective dose,"Wistar rats [5]; rat novel object recognition, p.o.",10 mg/kg
same,Effect compared with positive controls donepezil and galantamine,"Wistar rats [5]; rat, 10 mg/kg p.o.",significantly better than the positive controls
same,Agonist behaviour at the rat receptor,rat M1-receptor,partial agonist
same,EC50,human M1 receptor [6],631 nM
same,Agonism at other receptors,panel of 62 GPCRs,< 25%
same,EC50,human M1 receptor [7],32 nM
